Laboratory results from US20100120798A1, “SUBSTITUTED PIPERIDINES CONTAINING A HETEROARYLAMIDE OR HETEROARYLPHENYL MOIETY” (ASTEX THERAPEUTICS LIMITED, priority 2006, published 2010).
pIC50: −log10 of the molar value.

System: not listed separately
Test: In vitro MDA-MB-468 human breast adenocarcinoma GSK-3 phosphorylation assay
Type: cell-based
Details: mean IC50, MDA-MB-468 cells, 2 hours with compound, phospho-GSK-3β
Text: This assay determines the ability of test compounds to inhibit phosphorylation of Serine-9 residue in Glycogen Synthase Kinase-3beta (GSK-3β) as a surrogate marker of cellular PKB (Akt) activity, as assessed using Acumen Explorer Fluorescent Plate-Reader technology. A MDA-MB-468 human breast adenocarcinoma cell line (LGC Promochem, Teddington, Middlesex, UK, Catalogue No. HTB-132) was routinely maintained in Dulbecco's modified Eagle's growth medium (DMEM; Invitrogen Limited, Paisley, UK Catalogue No. 11966-025) containing 10% heat-inactivated foetal calf serum (FCS; Sigma, Poole, Dorset, UK, Catalogue No. F0392) and 1% L-glutamine (Gibco, Catalogue No. 25030-024) at 37° C. with 5% CO2 up to a confluency of 70-90%.
For the phosphorylation assay, the cells were detached from the culture flask using Trypsin-EDTA (Invitrogen Limited, Catalogue No. 25300-062) and seeded into the wells of a black transparent-bottom Corning Costar Polystyrene 96 well plate (Fisher Scientific UK, Loughborough, Leicestershire, UK; Catalogue No. 3904 and DPS-130-020K) at a density of 5000 cells per well in 100 μl of complete growth media. The cells were incubated overnight at 37° C. with 5% CO2 to allow them to adhere.
On day 2, the cells were treated with test compounds and incubated for 2 hours at 37° C. with 5% CO2. Test compounds were prepared as 10 mM stock solutions in DMSO and dosed directly to required concentration into test wells using non-contact (acoustic dispensing of multiple 2.5 nl droplets directly into assay wells) ECHO dosing technology (Labcyte Inc. Sunnyvale, Calif., USA). Each plate contained control wells without test compound.
20 μl of fixing buffer (Phosphate Buffered Saline (PBS) containing 10% formaldehyde; Sigma; Catalogue No. F1635) was then added to each well to give a final well concentration 1.6%. Plates were then incubated for 30 minutes at room temperature prior to the fixative being removed. Each well was washed once with 250 μl of PBS and then 50 μl PBS added to each well. PBS was then aspirated and cells permeabilised and blocked by incubating each well with 50 μl of permeabilisation/blocking buffer (PBS containing 0.5% Tween 20 (Sigma; Catalogue No. P5927) and 5% Marvel Milk Powder (Andrews Pharmacy Ltd, Macclesfield, Cheshire, UK; Catalogue No. APC100199)) for 1 hour at room temperature prior to staining.
Following removal of Perm/Block buffer, 50 μl of primary anti-phospho-GSK-3β antibody (Cell Signalling Technology (New England Biolabs (Uk) Ltd.), Hitchin, Hertfordshire, UK; Catalogue No. 9336 diluted 1:400 in Blocking buffer (PBS containing 5% Marvel and 0.05% Tween/Polysorbate 20) was added to each well and incubated overnight at 4° C.
Each well was washed three times in 250 μl of wash buffer (PBS containing 0.05% polysorbate 20), and cells incubated for 1 hour at room temperature with 50 μl of secondary fluorescently-labelled anti-rabbit Alexa Fluor 488 antibody (Molecular Probes, Invitrogen Limited, Catalogue No. A11008) diluted 1:750 in blocking buffer. Plates were washed three times in 250 μl of wash buffer and stored containing 50 μl of PBS at 4° C. until required.
Plates were analysed using an Acumen Explorer Plate-reader to quantify level of fluorescent signal that represents quantity of phosphorylated-GSK-3β.
IC50 calculation—IC50 is the concentration of compound required to give 50% effect over the range of activity affected by the compound, between maximum (no compound) and minimum (excess level of compound) response control data. IC50 values were determined by fitting background corrected, dose response assay data to a 4 parameter logistic curve fit equation model with the minimum response set to zero. This was done using an in-house developed algorithm within the Origin graphing software package (OriginLab Corporation, Northampton, Mass., USA). […]

| Structure (SMILES) | pIC50 |
| --- | --- |
| NCC1(C(=O)NCc2ccc(Cl)nc2)CCN(c2ncnc3[nH]ccc23)CC1 [Example 1, 4-Aminomethyl-1-(7H-pyrrolo[2,3-d]pyrimidin-4-yl)-piperidine-4-carboxylic acid (6-chloro-pyridin-3-ylmethyl)-amide] | 7.23 |
| NC1(C(=O)NCc2ccc(Cl)nc2)CCN(c2ncnc3[nH]ccc23)CC1 [Example 4, 4-Amino-1-(7H-pyrrolo[2,3-d]pyrimidin-4-yl)-piperidine-4-carboxylic acid (6-chloro-pyridin-3-ylmethyl)amide] | 6.06 |
| Cn1cc(-c2cc(F)cc(C3(CN)CCN(c4ncnc5[nH]ccc45)CC3)c2)cn1 [Example 70, (4-(3-fluoro-5-(1-methyl-1H-pyrazol-4-yl)phenyl)-1-(7H-pyrrolo[2,3-d]pyrimidin-4-yl)piperidin-4-yl)methanamine] | 7.23 |
| Cc1cnc(NC(=O)C2(CN)CCN(c3ncnc4[nH]cnc34)CC2)s1 [Example 72, 4-(Aminomethyl)-N-(5-methylthiazol-2-yl)-1-(9H-purin-6-yl)piperidine-4-carboxamide] | 6.51 |
| NCC1(c2cccc(-c3cn[nH]c3)c2)CCN(c2ncnc3[nH]ccc23)CC1 [Example 73, [4-[3-(1H-Pyrazol-4-yl)phenyl]-1-(7H-pyrrolo[3,2-e]pyrimidin-4-yl)piperidin-4-yl]methanamine] | 6.82 |
| Cc1ccncc1-c1cccc(C2(CN)CCN(c3ncnc4[nH]ccc34)CC2)c1 [Example 74, [4-[3-(4-methylpyridin-3-yl)phenyl]-1-(7H-pyrrolo[3,2-e]pyrimidin-4-yl)piperidin-4-yl]methanamine] | 7.26 |
| NCC1(c2cccc(-c3ccncc3)c2)CCN(c2ncnc3[nH]ccc23)CC1 [Example 75, [4-(3-pyridin-4-ylphenyl)-1-(7H-pyrrolo[3,2-e]pyrimidin-4-yl)piperidin-4-yl]methanamine] | 7.19 |
| NCC1(c2cccc(-c3ccco3)c2)CCN(c2ncnc3[nH]ccc23)CC1 [Example 78, [4-[3-(furan-2-yl)phenyl]-1-(7H-pyrrolo[3,2-e]pyrimindin-4-yl)piperidin-4-yl]methanamine] | 7.30 |
| NCC1(c2cccc(-c3cnoc3)c2)CCN(c2ncnc3[nH]ccc23)CC1 [Example 80, [4-[3-(1,2-oxazol-4-yl)phenyl]-1-(7H-pyrrolo[3,2-e]pyrimidin-4-yl)piperidin-4-yl]methanamine] | 7.00 |
| NCC1(C(=O)Nc2ccc(Cl)cn2)CCN(c2ncnc3[nH]ccc23)CC1 [Example 81, 4-(Aminomethyl)-N-(5-chloropyridin-2-yl)-1-(7H-pyrrolo[2,3-d]pyrimidin-4-yl)piperidine-4-carboxamide] | 7.14 |
| NCC1(C(=O)Nc2ccc(C(F)(F)F)nc2)CCN(c2ncnc3[nH]ccc23)CC1 [Example 82, 4-(Aminomethyl)-1-(7H-pyrrolo[2,3-d]pyrimidin-4-yl)-N-(6-(trifluoromethyl)pyridin-3-yl)piperidine-4-carboxamide] | 7.27 |

These reach a higher pIC50. Values come first.

| pIC50 | Structure (SMILES) |
| --- | --- |
| 7.32 | NCC1(c2cccc(-c3ccoc3)c2)CCN(c2ncnc3[nH]ccc23)CC1 [Example 79, [4-(3-furan-3-ylphenyl)-1-(7H-pyrrolo[3,2-e]pyrimidin-4-yl)piperidin-4-yl]methanamine] |
| 7.46 | NCC1(c2cccc(-c3cncnc3)c2)CCN(c2ncnc3[nH]ccc23)CC1 [Example 77, [4-(3-pyrimidin-5-ylphenyl)-1-(7H-pyrrolo[3,2-e]pyrimidin-4-yl)piperidin-4-yl]methanamine] |
| 7.48 | NCC1(c2cccc(-c3cccnc3)c2)CCN(c2ncnc3[nH]ccc23)CC1 [Example 76, [4-(3-pyridin-3-ylphenyl)-1-(7H-pyrrolo[3,2-e]pyrimidin-4-yl)piperidin-4-yl]methanamine] |
| 7.51 | Cn1cc(-c2cccc(C3(CN)CCN(c4ncnc5[nH]cnc45)CC3)c2)cn1 [Example 6, C-[4-[3-(1-Methyl-1H-pyrazol-4-yl)-phenyl]-1-(9H-purin-6-yl)-piperidin-4-yl]-methylamine] |
| 7.77 | NCC1(c2cc(F)cc(-c3cncc(F)c3)c2)CCN(c2ncnc3[nH]ccc23)CC1 [Example 71, (4-(3-Fluoro-5-(5-fluoropyridin-3-yl)phenyl)-1-(7H-pyrrolo[2,3-d]pyrimidin-4-yl)piperidin-4-yl)methanamine] |

Molecular target: hERG K+ ion channel (Homo sapiens, UniProt Q12809)
Sequence (Q12809 whole entry): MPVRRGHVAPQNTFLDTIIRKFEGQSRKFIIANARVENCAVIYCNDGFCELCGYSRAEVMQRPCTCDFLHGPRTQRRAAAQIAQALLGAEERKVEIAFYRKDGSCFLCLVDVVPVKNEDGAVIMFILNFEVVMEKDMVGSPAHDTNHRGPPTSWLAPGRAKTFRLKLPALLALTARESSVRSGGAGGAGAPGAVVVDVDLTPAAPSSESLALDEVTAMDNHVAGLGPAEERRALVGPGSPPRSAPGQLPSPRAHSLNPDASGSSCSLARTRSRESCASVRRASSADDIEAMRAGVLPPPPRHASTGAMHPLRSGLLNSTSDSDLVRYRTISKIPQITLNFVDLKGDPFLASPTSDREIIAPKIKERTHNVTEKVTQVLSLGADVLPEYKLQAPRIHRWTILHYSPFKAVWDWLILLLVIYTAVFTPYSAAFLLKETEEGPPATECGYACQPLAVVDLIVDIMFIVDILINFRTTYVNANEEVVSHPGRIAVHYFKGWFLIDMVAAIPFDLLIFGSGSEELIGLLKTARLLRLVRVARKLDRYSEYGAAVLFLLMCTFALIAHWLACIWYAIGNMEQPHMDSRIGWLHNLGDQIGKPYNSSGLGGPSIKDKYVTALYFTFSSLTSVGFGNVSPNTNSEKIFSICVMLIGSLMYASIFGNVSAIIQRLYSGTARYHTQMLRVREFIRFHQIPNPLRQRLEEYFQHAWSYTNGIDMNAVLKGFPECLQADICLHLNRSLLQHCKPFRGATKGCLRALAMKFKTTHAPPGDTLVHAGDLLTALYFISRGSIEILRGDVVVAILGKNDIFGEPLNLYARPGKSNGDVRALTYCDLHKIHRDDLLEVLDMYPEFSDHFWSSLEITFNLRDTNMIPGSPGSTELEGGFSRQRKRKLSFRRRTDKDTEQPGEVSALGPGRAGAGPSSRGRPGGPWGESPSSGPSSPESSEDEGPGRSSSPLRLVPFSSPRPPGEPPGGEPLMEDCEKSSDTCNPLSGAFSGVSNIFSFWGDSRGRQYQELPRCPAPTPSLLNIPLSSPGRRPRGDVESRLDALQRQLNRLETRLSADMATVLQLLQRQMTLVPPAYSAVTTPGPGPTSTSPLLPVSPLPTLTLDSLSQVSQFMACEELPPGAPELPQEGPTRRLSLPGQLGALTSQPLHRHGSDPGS
Test: hERG activity
Type: cell-based
Details: assay of Bridgland-Taylor et al.; read-out: IC50 against hERG K+ ion channel
Text: The activity of compounds of the invention against the hERG K^+ ion channel can be determined using the assay described in the article by M. H. Bridgland-Taylor et al., Journal of Pharmcaological and Toxicological Methods, 54 (2006), 189-199.

| Structure (SMILES) | pIC50 |
| --- | --- |
| NCC1(C(=O)NCc2ccc(Cl)nc2)CCN(c2ncnc3[nH]ccc23)CC1 [Example 1, 4-Aminomethyl-1-(7H-pyrrolo[2,3-d]pyrimidin-4-yl)-piperidine-4-carboxylic acid (6-chloro-pyridin-3-ylmethyl)-amide] | < 4.49 |
| NC1(C(=O)NCc2ccc(Cl)nc2)CCN(c2ncnc3[nH]ccc23)CC1 [Example 4, 4-Amino-1-(7H-pyrrolo[2,3-d]pyrimidin-4-yl)-piperidine-4-carboxylic acid (6-chloro-pyridin-3-ylmethyl)amide] | < 4.49 |
| Cn1cc(-c2cccc(C3(CN)CCN(c4ncnc5[nH]cnc45)CC3)c2)cn1 [Example 6, C-[4-[3-(1-Methyl-1H-pyrazol-4-yl)-phenyl]-1-(9H-purin-6-yl)-piperidin-4-yl]-methylamine] | < 4.49 |
